Assay results: US10738093B2, “Discovery of cationic nonribosomal peptides as Gram-negative antibiotics through global genome mining” (The Hong Kong University of Science and Technology, priority 2018, dated 2020)
In brackets after ≈: the same amount, converted by molar mass. Positions of bridges follow the written chain, without caps; N, C: chain ends. Non-standard residues stand in square brackets, D forms with d. Residues, ends and D or L forms follow the SMILES beside them. ξ: configuration not given here. *: point of attachment. Hexanoyl(4ξ-Me) = CCC(C)CCC(=O)*; dOrn = NCCC[C@@H](N)C(=O)O; Orn = NCCC[C@H](N)C(=O)O

What was measured:
[1] = test system: Escherichia coli ATCC 25922; test: microbe, parasite or virus in culture; type: cell-based; conditions: ATCC 25922
Protocol: (§1) Minimum inhibitory concentration (MIC) was determined by broth microdilution according to CLSI guidelines. The test medium for most species was Mueller-Hinton broth (MHB). Bacteria were grown overnight to early stationary phase and adjusted in MHB to 5.0×10^5 colony-forming units per mL (c.f.u./mL) in the wells of 96-well microtiter plates, mixed with varying concentrations of test compounds and incubated at 37° C. for 24 h. […] MHBs containing 10% fetal bovine serum (Gibco), 21 mM MgCl, or 1.0 mg/ml LPS (lipopolysaccharides from Escherichia coli O55:B5, Sigma-Aldrich) were used to test their inhibitory effects.

[2] = test system: Colistin-resistant E. coli (E. coli ATCC 25922 carrying mcr-1); type: cell-based, Escherichia coli
Protocol: as §1

[3] = test system: E. coli Top10; type: cell-based, Escherichia coli; conditions: Top10
Protocol: as §1

[4] = test system: Acinetobacter baumannii; type: cell-based
Protocol: as §1

[5] = test system: Bacillus subtilis 168; type: cell-based; conditions: 168
Protocol: as §1

[6] = test system: Candida albicans; type: cell-based
Protocol: as §1

[7] = test system: Enterobacter cloacae NRRL-B-413; type: cell-based; conditions: NRRL-B-413
Protocol: as §1

[8] = test system: Klebsiella pneumoniae NRRL-B-408; type: cell-based; conditions: NRRL-B-408
Protocol: as §1

[9] = test system: Methicillin-resistant Staphylococcus aureus ATCC 43300; type: cell-based
Protocol: as §1

[10] = test system: Pseudomonas aeruginosa PAO1; type: cell-based; conditions: PAO1
Protocol: as §1

[11] = test system: K. pneumoniae NRRL-B-3521; type: cell-based, Klebsiella pneumoniae; conditions: NRRL-B-3521
Protocol: as §1

[12] = test system: E. cloacae NRRL-B-425; type: cell-based, Enterobacter cloacae; conditions: NRRL-B-425
Protocol: as §1

[13] = test system: Saccharomyces cerevisiae VL-48; test: MIC, Saccharomyces cerevisiae; type: cell-based
Protocol: as §1

[14] = test system: E. coli Top10; test: Time-kill assay; type: cell-based, Escherichia coli
Protocol: An overnight culture of E. coli Top10 or Pseudomonas aeruginosa PAO1 cells was diluted 1:10,000 in MHB and incubated at 37° C. with agitation at 180 rpm for 2 h (early exponential). The bacteria were then challenged with antibiotics at 10×MIC, brevicidine (20 μg/ml), laterocidine (20 μg/ml) or polymyxin B (10 μg/ml) at room temperature without shaking. An untreated sample of cells was used as a negative control. At intervals, 10 μL aliquots were removed, centrifuged at 10,000 g for 1 min and resuspended in 1.0 mL of sterile PBS. Tenfold-serially-diluted suspensions were plated on MHB agar plates and incubated at 37° C. overnight. Colonies were counted and the number of c.fu. per mL was calculated. For analysis of lysis, 300 μL of culture (OD600=1.0) were treated with 10×MIC of antibiotics for 24 h. Experiments were performed in triplicate.

[15] = test system: Escherichia coli ATCC 25922; test: Resistance acquisition during serial passaging; type: cell-based; conditions: serial passaging at subinhibitory concentrations over 30 days
Protocol: Escherichia coli ATCC 25922 was inoculated into MHB overnight at 37° C. with continuous shaking. Cells were diluted 10,000 times in MHB to about 1×10^6 c.f.u./mL. […] Plates with bacteria were incubated at 37° C. without shaking. […] This process was repeated for 30 d, and the final MIC was confirmed by the same antibacterial assay described above. The experiment was performed in quadruplicate, and on each day, the sample that developed the highest resistance was measured to plot the curve.

[16] = LPS binding by isothermal titration calorimetry; parameters: species or system Escherichia coli; conditions: ITC
Protocol: Microcalorimetric experiments of peptide binding to LPS were performed on an MCS isothermal titration calorimeter (ITC) (Microcal, Northampton, Mass.) at 37° C. LPS was prepared as a 50 μM aqueous suspension in 20 mM HEPES (pH 7.0) buffer by suspension, sonication and temperature cycling between 5° C. and 70° C. This suspension was stored at 4° C. overnight prior to use. 100 μM peptide solutions (brevicidine and polymyxin B) were prepared in the same buffer and all solutions were degassed prior to use by stirring under vacuum for 5 min at 37° C. After thermal equilibration, 5 μL aliquots of the peptide solution were added every 3 min into the lipid-containing cell at 37° C. and stirred constantly. The change in heat during the titration steps was registered in real time and raw data were processed using the Origin® 7 software provided with the instrument. In control experiments, the corresponding peptide solution (or LPS solution) was injected into the buffer without LPS (or without peptide).

[17] = test system: E. coli ATCC 25922; test: Atomic force microscopy of treated E. coli; type: cell-based, Escherichia coli; conditions: E. coli ATCC25922, 10×MIC
Protocol: (§2) The samples were then centrifuged at 8000 g for 10 min at 4° C., and the pellet was washed twice in 100 lpL of apyrogenic water. The bacteria resuspended in 50 μL of apyrogenic water were applied to mica disks and dried overnight at 28° C. before imaging. Atomic force micrographs were recorded on a Veeco Mulitmode AFM with NanoScope III controller operating in contact mode. The data were analyzed with NanoScope Analysis software v.1.40 (Veeco, USA). Scans were acquired at 25° C. at the rates of 1.0 Hz and 256 samples per line resolution. Downstream image processing and analysis were performed using NanoScope software (Bruker). Height images were flattened to compensate for cell curvature, and topographical sections were used to generate two-dimensional reconstructions of surface texture.

[18] = test system: P. aeruginosa PAO1; test: Atomic force microscopy of treated P. aeruginosa; type: cell-based, Pseudomonas aeruginosa
Protocol: as §2

CCC(C)CCC(=O)N[C@H](CC(N)=O)C(=O)N[C@H](Cc1ccc(O)cc1)C(=O)N[C@H](Cc1c[nH]c2ccccc12)C(=O)N[C@H](CCCN)C(=O)N[C@@H](CCCN)C(=O)NCC(=O)N[C@H](CCCN)C(=O)N[C@@H](Cc1c[nH]c2ccccc12)C(=O)N[C@@H]1C(=O)N[C@@H]([C@@H](C)CC)C(=O)NCC(=O)N[C@H](CO)C(=O)O[C@@H]1C (stereo partly drawn) [Compound 1, 4-Methyl-Hexanoyl-D-Asn-D-Tyr-D-Trp-D-Orn-Orn-Gly-D-Orn-Trp-Thr-Ile-Gly-Ser (cyclized via lactone formation between Thr and the C-terminus)] ({Hexanoyl(4ξ-Me)}-[dN][dY][dW][dOrn][Orn]G[dOrn]WTIG[dS]; ester 9-C)
MIC [1]: 2 µg/mL (≈ 1.32 µM)
MIC Ec [1]: 2 µg/mL (≈ 1.32 µM)
MIC [2]: 2 µg/mL (≈ 1.32 µM)
MIC [3]: 2 µg/mL (≈ 1.32 µM)
MIC [4]: 16 µg/mL (≈ 10.5 µM)
MIC Ab [4]: 16 µg/mL (≈ 10.5 µM)
MIC [5]: 32 µg/mL (≈ 21.1 µM)
MIC Bs [5]: 32 µg/mL (≈ 21.1 µM)
MIC [6]: >64 µg/mL
MIC Ca ([6]; Table 2, Candida albicans): ND (ND >64 μg/ml)
MIC [7]: 2 µg/mL (≈ 1.32 µM)
MIC En [7]: 2 µg/mL (≈ 1.32 µM)
MIC [8]: 2 µg/mL (≈ 1.32 µM)
MIC ([9]; ATCC 43300): >64 µg/mL
MIC MRSA ([9]; Table 2, Methicillin-resistant Staphylococcus aureus ATCC 43300): ND (ND >64 μg/ml)
MIC [10]: 1 µg/mL (≈ 0.658 µM)
MIC Pa [10]: 1 µg/mL (≈ 0.658 µM)
MIC [11]: 4 µg/mL (≈ 2.63 µM)
MIC [12]: 2 µg/mL (≈ 1.32 µM)
MIC ([13]; Saccharomyces cerevisiae): >64 µg/mL
MIC Sc ([13]; Table 2, Saccharomyces cerevisiae VL-48): ND (ND >64 μg/ml)
time of exposure to significant reduction of viable cells ([14]; 10 times the MIC): 30 min
time of exposure to slightly reduced cell viability ([14]; 10 times the MIC): 15 min
bactericidal against E. coli ([14]; growth kinetics, time-kill assay and lysis assay): bactericidal
development of resistance [15]: development of resistance was not observed
Kd ([16]; 37° C., read-out: dissociation constant Kd for LPS): 6.5 µM
binding to LPS ([16]; FIGS. 18a-18b): strong binding to LPS
cell morphology by AFM [17]: lost their regular rod-like shape and became lumpy and rugged
cell morphology by AFM [18]: lost their regular rod-like shape and became lumpy and rugged
